Read-outs that look alike come from different tables or passages of the source.
Key:
in vitro = conditions: human
Experimental: The human origin cell line HepG2 (ATCC, Mannassas, VA, USA) isolated from liver hepatocellular carcinoma was used to evaluate cytotoxicity of tested compounds. The cells were cultivated in Dublecco’s modified Eagle’s medium (DMEM; Biosera, Nuaille, France) supplemented with 10% fetal bovine serum (Biosera) and 1% penicillin-streptomycin antibiotic solution (Sigma-Aldrich, St. Louis, MO, USA), incubated at 37 °C in a CO2 incubator (Binder CO2 incubator BC 160, Tuttlingen, Germany) and routinely passaged by trypsinization at 75–85% confluence.
The final concentration of DMSO was less than 0.25% per well.
After 24-h incubation, the medium containing serially diluted substances was aspirated from each well and replaced by 100 µL of fresh medium containing MTT (0.5 mg/mL). Plates were subsequently incubated at 37 °C in CO2 incubator for 45 min. The medium containing MTT was then aspirated and formazan dissolved in 100 μL of DMSO. The optical density of each well was measured using Synergy 2 Multi-Mode Microplate Reader (BioTek Instruments, Inc., Winooski, VT, USA) at 570 nm. The cell viability was expressed as the percentage of untreated control. Each experiment was performed in triplicate and repeated three independent times.
The IC50 values were expressed as a mean ± standard error of the mean (SEM).

[1] = biological target: human BChE (hBChE), human plasmatic butyrylcholinesterase (Homo sapiens, UniProt P06276); assay: hBChE inhibition, modified Ellman's method; type: biochemical
Sequence of human BChE (hBChE), human plasmatic butyrylcholinesterase (P06276 29-602): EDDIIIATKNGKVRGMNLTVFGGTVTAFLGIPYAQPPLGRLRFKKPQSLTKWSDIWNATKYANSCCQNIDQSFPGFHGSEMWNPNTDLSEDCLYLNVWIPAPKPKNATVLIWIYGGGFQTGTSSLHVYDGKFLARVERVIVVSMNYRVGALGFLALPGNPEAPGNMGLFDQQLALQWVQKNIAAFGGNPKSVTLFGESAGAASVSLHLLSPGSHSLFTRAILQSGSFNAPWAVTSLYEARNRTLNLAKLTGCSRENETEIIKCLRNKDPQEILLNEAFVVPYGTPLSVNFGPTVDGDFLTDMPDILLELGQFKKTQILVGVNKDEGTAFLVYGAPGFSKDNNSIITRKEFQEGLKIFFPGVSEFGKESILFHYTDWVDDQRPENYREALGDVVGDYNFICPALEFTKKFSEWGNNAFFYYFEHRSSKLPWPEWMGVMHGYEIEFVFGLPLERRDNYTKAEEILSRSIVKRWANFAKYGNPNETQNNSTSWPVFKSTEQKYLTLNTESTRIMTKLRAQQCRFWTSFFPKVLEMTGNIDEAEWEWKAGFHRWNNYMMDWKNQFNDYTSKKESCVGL
Experimental: Three series of tacrine-squaramide homodimers were tested for their inhibitory potential against human AChE (hAChE) and human BChE (hBChE) enzymes using modified spectrophotometric method of Ellman et al.. THA, 6-Cl-THA and 7-MEOTA were used as reference compounds.
(§1) Human plasmatic butyrylcholinesterase (BChE; EC 3.1.1.8) and recombinant acetylcholinesterase (AChE; 3.1.1.7) were prepared at the Department of Toxicology and Military Pharmacy. 5,5′-dithiobis(2-nitrobenzoic acid) (Ellman’s reagent, DTNB), phosphate buffer (PB, pH 7.4), acetylthiocholine (ATC) and butyrylthiocholine (BTC), were purchased from Sigma-Aldrich, Prague, Czech Republic. For measuring purposes – polystyrene Nunc 96-well microplates with flat bottom shape (ThermoFisher Scientific, USA) were utilized.
(§2) All the assays were carried out in 0.1 M KH2PO4/K2HPO4 buffer, pH 7.4. Enzyme solutions were prepared at 2.0 units/mL in 2 mL aliquots. The assay medium (100 µL) consisted of 40 µL of 0.1 M phosphate buffer (pH 7.4), 20 µL of 0.01 M DTNB, 10 µL of the enzyme, and 20 µL of 0.01 M substrate (ATC/BTC iodide solution).
(§3) Tested compounds were preincubated for 5 min. The reaction was started by immediate addition of 20 µL of the substrate. The activity was determined by measuring the increase in absorbance at 412 for AChE/BChE at 37 °C at 2 min intervals - using a Multi-mode microplate reader Synergy 2 (Winooski, VT, USA). Each concentration was assayed in triplicate. Software GraphPad Prizm 5 (San Diego, CA, USA) was used for the statistical data evaluation.

[2] = biological target: T1, human AChE (hAChE), recombinant acetylcholinesterase (Homo sapiens, UniProt P22303); assay: hAChE inhibition, modified Ellman's method; type: biochemical; conditions: for times more potent than reference (hAChE): 3a vs THA, 5d vs 7-MEOTA; for SI (selectivity index for hAChE): ratio IC50(hBChE)/IC50(hAChE)
T1 construct: made in house
T1 sequence (P22303 32-614): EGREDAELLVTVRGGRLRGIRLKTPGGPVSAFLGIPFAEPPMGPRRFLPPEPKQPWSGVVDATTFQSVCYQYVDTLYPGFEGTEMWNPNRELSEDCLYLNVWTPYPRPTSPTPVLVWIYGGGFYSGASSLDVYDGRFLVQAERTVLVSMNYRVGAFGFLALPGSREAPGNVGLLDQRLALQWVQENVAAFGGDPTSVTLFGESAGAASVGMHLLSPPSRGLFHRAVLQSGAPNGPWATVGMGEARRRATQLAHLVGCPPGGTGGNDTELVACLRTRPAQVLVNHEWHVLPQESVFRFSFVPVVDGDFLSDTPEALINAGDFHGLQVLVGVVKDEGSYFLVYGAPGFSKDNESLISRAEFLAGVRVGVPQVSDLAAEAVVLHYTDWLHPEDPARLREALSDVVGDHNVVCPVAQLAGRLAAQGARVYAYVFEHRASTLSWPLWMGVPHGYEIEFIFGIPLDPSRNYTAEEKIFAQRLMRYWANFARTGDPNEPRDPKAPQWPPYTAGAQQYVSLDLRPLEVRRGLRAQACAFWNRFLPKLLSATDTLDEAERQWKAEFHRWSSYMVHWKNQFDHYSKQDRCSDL
Experimental: Three series of tacrine-squaramide homodimers were tested for their inhibitory potential against human AChE (hAChE) and human BChE (hBChE) enzymes using modified spectrophotometric method of Ellman et al.. THA, 6-Cl-THA and 7-MEOTA were used as reference compounds. […].
as §1, §2, §3

[3] = for Pe: PAMPA, PBS pH 7.4; for BBB permeation prediction in words: PAMPA-BBB; for CNS (+/−) predicted BBB permeation: class from Pe
Source text: An important feature for drugs targeting the brain is their ability to cross the BBB. The parallel artificial membrane permeability assay (PAMPA) is a high-throughput screening tool applicable for prediction of passive transport across BBB [57]. […] These include mainly (i) the different composition of the human phospholipid bilayer may cause deviation in predicted permeability, (ii) omitting the absorption of compounds that are actively transported by influx transporters and pumped-out by various efflux mechanisms with the glycoprotein P at the forefront or (iii) transport through the paracellular route which is mostly exploited by small […] molecules. Even considering these drawbacks, PAMPA-BBB is conceived as very simple but powerful tool for BBB prediction.
PAMPA (the parallel artificial membrane permeability assay) is a high-throughput screening tool applicable for prediction of the passive transport of potential drugs across the blood-brain barrier (BBB). In this study, it has been used as a non-cell-based in vitro assay carried out in a coated 96-well membrane filter. The filter membrane of the donor plate was coated with PBL (Polar Brain Lipid, Avanti, USA) in dodecane (4 µl of 20 mg/mL PBL in dodecane) and the acceptor well was filled with 300 µl of phosphate buffer saline, (PBS pH 7.4; VA). The tested compounds were dissolved first in DMSO and then diluted with PBS pH 7.4 to reach the final concentrations 50–500 µM in the donor well. […] In principle, test compound diffuse from the donor well through the polar brain lipid membrane (area = 0.28 cm^2) to the acceptor well. The concentration of the tested compound in both donor and the acceptor wells were assessed after 3, 4, 5 and 6 h of incubation in quadruplicate using the UV plate reader Synergy HT (Biotek, USA) at the maximum absorption wavelength of each compound (n = 3). Besides that, the solution of theoretical compound concentration, simulating the equilibrium state, established if the membrane was ideally permeable was prepared and assessed as well.

hBChE = hBChE (Homo sapiens, UniProt P06276); assay: Kinetic study of BChE inhibition; type: biochemical
Sequence of hBChE (P06276 29-602): as the sequence (P06276 29-602) above
Experimental: (§4) Kinetic study was performed in order to describe the interactions of the compounds 4b and 3e with hAChE and hBChE, respectively. Inhibition kinetics were elucidated from velocity curves that were measured at several concentrations of the corresponding substrate (AChE—acetylthiocholine, BChE—butyrylthiocholine) and tested compounds. The type of enzyme inhibition and corresponding kinetic parameters (Ki and Ki’) were determined by nonlinear regression analysis. Results for each type model of inhibition (competitive, non-competitive, uncompetitive and mixed) were compared by sum-of-squares F-test. […].
(§5) The kinetic study of AChE and BChE was performed by using the above-mentioned modified Ellman’s method. The values of Vmax and Km of the Michaelis-Menten kinetics as well as the values of Ki and Ki’ were calculated by nonlinear regression from the substrate velocity curves. Linear regression was used for calculation of Lineweaver-Burk plots. All calculations were performed using GraphPad Prism software version 6.07 for Windows (San Diego, CA, USA).

hAChE = biological target: T2, hAChE (Homo sapiens, UniProt P22303); assay: Kinetic study of AChE inhibition; type: biochemical
T2 construct: made in house
T2 sequence (P22303 32-614): as the sequence (P22303 32-614) above
Experimental: as §4, §5

[4] = nonlinear regression, sum-of-squares F-test, p < 0.05
[5] = mean of at least three experiments, read-out: IC50 hBChE

SMILES	IC50 at 24 h (in vitro) [µM]	IC50 [1] [µM]	IC50 [2] [µM]	times more potent than reference (hAChE) [2] [times]	SI (selectivity index for hAChE) [2]	Pe [3] [nm/s]	BBB permeation prediction in words [3]	CNS (+/−) predicted BBB permeation [3]	Ki' (hBChE; binding to enzyme-substrate complex, substrate butyrylthiocholine) [µM]	Ki (hBChE; binding to free enzyme, substrate butyrylthiocholine) [µM]	type of inhibition (hBChE; [4])	times less active than bis(7)-tacrine (hAChE) ([2]; IC50 comparison with bis(7)-tacrine) [times]	Ki' (hAChE; binding to enzyme-substrate complex, substrate acetylthiocholine) [µM]	Ki (hAChE; binding to free enzyme, substrate acetylthiocholine) [µM]	type of inhibition (hAChE; [4])	IC50 [1, 5] [µM]
O=c1c(NCCNc2c3c(nc4ccccc24)CCCC3)c(NCCNc2c3c(nc4ccccc24)CCCC3)c1=O [Compound 3a, Bis({2-[(1,2,3,4-tetrahydroacridin-9-yl)amino]ethyl}amino)cyclobut-3-ene-1,2-dione]	> 256	0.062	0.0038	84	16	11	cannot presumably cross the BBB	CNS − (CNS −: low BBB permeation predicted with Pe (10^−6 cm·s^−1) < 2.0)	–	–	–	–	–	–	–	–
O=c1c(NCCCCCCNc2c3c(nc4ccccc24)CCCC3)c(NCCCCCCNc2c3c(nc4ccccc24)CCCC3)c1=O [Compound 3e, Bis({6-[(1,2,3,4-tetrahydroacridin-9-yl)amino]hexyl}amino)cyclobut-3-ene-1,2-dione]	76	0.021	0.013	–	1.6	26	uncertain BBB permeation	CNS +/− (CNS +/−: BBB permeation uncertain with Pe (10^−6 cm·s^−1) from 4.0 to 2.0)	0.1 ± 0.028	0.0081 ± 0.0019	mixed type of inhibition	–	–	–	–	–
O=c1c(NCCCNc2c3c(nc4cc(Cl)ccc24)CCCC3)c(NCCCNc2c3c(nc4cc(Cl)ccc24)CCCC3)c1=O [Compound 4b, Bis({3-[(6-chloro-1,2,3,4-tetrahydroacridin-9-yl)amino]propyl}amino)cyclobut-3-ene-1,2-dione]	> 64	0.11	0.002	–	55	25	uncertain BBB permeation	CNS +/− (CNS +/−: BBB permeation uncertain with Pe (10^−6 cm·s^−1) from 4.0 to 2.0)	–	–	–	2.5	0.0005 ± 0.0002	0.0004 ± 0.0002	mixed type of inhibition	–
O=c1c(NCCCCCCNc2c3c(nc4cc(Cl)ccc24)CCCC3)c(NCCCCCCNc2c3c(nc4cc(Cl)ccc24)CCCC3)c1=O [Compound 4e, Bis({6-[(6-chloro-1,2,3,4-tetrahydroacridin-9-yl)amino]hexyl}amino)cyclobut-3-ene-1,2-dione]	> 64	–	0.0032	–	170	170	high probability to cross the BBB	CNS + (CNS +: high BBB permeation predicted with Pe (10^−6 cm·s^−1) > 4.0)	–	–	–	–	–	–	–	0.54
COc1ccc2nc3c(c(NCCNc4c(NCCNc5c6c(nc7ccc(OC)cc57)CCCC6)c(=O)c4=O)c2c1)CCCC3 [Compound 5a, Bis({2-[(7-methoxy-1,2,3,4-tetrahydroacridin-9-yl)amino]ethyl}amino)cyclobut-3-ene-1,2-dione]	> 256	–	0.17	–	0.7	23	uncertain BBB permeation	CNS +/− (CNS +/−: BBB permeation uncertain with Pe (10^−6 cm·s^−1) from 4.0 to 2.0)	–	–	–	–	–	–	–	0.13
COc1ccc2nc3c(c(NCCCCCNc4c(NCCCCCNc5c6c(nc7ccc(OC)cc57)CCCC6)c(=O)c4=O)c2c1)CCCC3 [Compound 5d, Bis({5-[(7-methoxy-1,2,3,4-tetrahydroacridin-9-yl)amino]pentyl}amino)cyclobut-3-ene-1,2-dione]	98	0.68	0.12	83	5.7	13	cannot presumably cross the BBB	CNS − (CNS −: low BBB permeation predicted with Pe (10^−6 cm·s^−1) < 2.0)	–	–	–	–	–	–	–	–
COc1ccc2nc3c(c(NCCCCCCCNc4c(NCCCCCCCNc5c6c(nc7ccc(OC)cc57)CCCC6)c(=O)c4=O)c2c1)CCCC3 [Compound 5f, Bis({7-[(7-methoxy-1,2,3,4-tetrahydroacridin-9-yl)amino]heptyl}amino)cyclobut-3-ene-1,2-dione]	9	–	0.17	–	7.6	–	–	–	–	–	–	–	–	–	–	1.3
COc1ccc2nc3c(c(NCCCCCCCCNc4c(NCCCCCCCCNc5c6c(nc7ccc(OC)cc57)CCCC6)c(=O)c4=O)c2c1)CCCC3 [Compound 5g, Bis({8-[(7-methoxy-1,2,3,4-tetrahydroacridin-9-yl)amino]octyl}amino)cyclobut-3-ene-1,2-dione]	3.5	–	0.49	–	5.9	–	–	–	–	–	–	–	–	–	–	2.9

— publication PMC6723352, “Exploring Structure-Activity Relationship in Tacrine-Squaramide Derivatives as Potent Cholinesterase Inhibitors” (Biomolecules, 2019)
